# Patent US6906175B2, “Production of adenine nucleotide translocator (ANT), novel ANT ligands and screening assays therefor” (priority 1998, dated 2005)
# Target: T1, GST-huANT3 recombinantly produced in E. coli (membranes) (Homo sapiens, UniProt P12236)
# T1 construct: Gly-Ser-Pro-Gly-Ile-Leu-Met, where “Met” indicates the amino acid encoded by the translation initiation codon of huANT3; made in house; host or cells: E. coli (crude membrane preparation)
# T1 sequence (P12236 1-298): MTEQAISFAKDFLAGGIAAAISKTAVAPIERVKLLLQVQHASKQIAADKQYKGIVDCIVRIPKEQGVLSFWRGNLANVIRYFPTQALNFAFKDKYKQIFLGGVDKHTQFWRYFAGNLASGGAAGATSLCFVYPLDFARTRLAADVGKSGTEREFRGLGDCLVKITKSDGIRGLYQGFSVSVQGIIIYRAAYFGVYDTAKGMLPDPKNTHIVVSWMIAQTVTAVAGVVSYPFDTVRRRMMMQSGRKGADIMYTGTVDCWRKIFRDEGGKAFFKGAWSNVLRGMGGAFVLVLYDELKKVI
# Experiment: Saturation binding of [32P]ATP to E. coli membranes, huANT3-producing cells
# Conditions: atractyloside 10μM added to the assay
# Method: Following arabinose induction, transformed or sham transformed (vector only) E coli were collected by centrifugation at 2000 g for 10 min. The bacterial pellets were resuspended in MSB, to which lysozyme (100 μg/ml) was added. After 20 min at room temperature, the lysates were subjected to one freeze-thaw cycle followed by sonication as described above. The resultant membrane preparation was used for binding assays.
# […] The membranes with bound ATP were sedimented by centrifugation at 5000 g for 5 min, and washed once with binding buffer. Membrane pellets were then mixed with 5 ml scintillation cocktail and counted.
structure (smiles),measurement,value
"C=C1[C@@H]2CCC3[C@@](CC[C@@H]4[C@H](C(=O)O)C[C@@H](O[C@@H]5O[C@H](CO)[C@@H](OS(=O)(=O)[O-])[C@H](OS(=O)(=O)[O-])[C@H]5OC(=O)CC(C)C)C[C@@]34C)(C2)[C@@H]1O.[K+].[K+] (stereo partly shown) [ATR, atractyloside]",effect on ATP binding,abolished
